Experimental data: patent US11453897B2, “Method for producing aminobenzoic acid or an aminobenzoic acid derivative product” (Covestro Intellectual Property GmbH & Co. KG, priority 2018, dated 2022)

Assay: Dissolution of calcium ortho-aminobenzoate by salt exchange with ammonium ions (ammonium carbonate stock solution)
Assay type: physicochemical
Description: 48.0 g of anhydrous calcium chloride was added to 1.00 L of fermentation broth. The pH was adjusted to a value of 7.0 by adding hydrochloric acid. 100 g of ortho-aminobenzoic acid (dissolved in sodium hydroxide solution at pH 7.0) was then added to this mixture by adding 200 mL of oAB STOCK SOLUTION. There was briefly precipitation of calcium ortho-aminobenzoate. The concentration of dissolved ortho-aminobenzoic acid measured in the aqueous phase was 18.0 g/L. The solids fraction of the mixture was filtered off and dried at 80° C. for 48 h. In this way, 110 g of dried solid material was obtained. 20.0 g of that was added to 50.0 mL of AMMONIUM STOCK SOLUTION 1, the mixture was stirred and the concentration of dissolved ortho-aminobenzoic acid was determined. The latter was 146 g/L.
48.0 g of anhydrous calcium chloride was added to 800 mL of water. The pH was adjusted to a value of 7.0 by adding hydrochloric acid. […] The concentration of dissolved ortho-aminobenzoic acid measured in the aqueous phase was 18.0 g/L. The solids fraction of the mixture was filtered off and dried at 80° C. for 48 h. […] 20.0 g of that was added to 25.0 mL of AMMONIUM STOCK SOLUTION 2, the mixture was stirred and the concentration of dissolved ortho-aminobenzoic acid was determined.

With calcium ortho-aminobenzoate the “concentration of dissolved ortho-aminobenzoic acid after salt exchange” value (20.0 g dried solid in 25.0 mL ammonium carbonate 210 g/L (Example 2)) was 175000 µg/mL and the “concentration of dissolved ortho-aminobenzoic acid after salt exchange” value (20.0 g dried solid in 50.0 mL ammonium carbonate 105 g/L (Example 1)) was 146000 µg/mL.
